Measured values published in patent US4377578A, “Piperazine derivatives” (priority 1981, dated 1983).

Legend:
[1] = tested on: histamine-induced spasms of guinea-pig ileum strips; test: Anti-histamine activity in vitro (guinea-pig ileum); type: cell-based; details: Table I-b; histamine 0.5 mg/liter, 5 minutes incubation, significant inhibition (50%) of contraction
Experimental: The histamine-(0.5 mg/liter) induced spasms are recorded Kymographically with an isotonic lever giving a 5-fold magnification.

[2] = tested on: histamine paw oedema in guinea pigs; test: Histamine paw oedema in guinea pigs; type: in vivo, guinea pig; details: Table I-b, 2 hours before s.p. histamine 50 μg, oedema below 10 units at 10 minutes
Experimental: Guinea pigs, weighing between 400 and 500 g, are sensitized to ovalbumin by subplantar (s.p.) injection of 0.05 ml of antiserum in the left hind paw. The animals are then starved and orally treated, 24 hours after the sensitization, with saline (=control animals) or a particular dose of the compound under investigation. The histamine injection (at a dose of 50 μg) was given s.p. in the right hind paw 2 hours after the oral pretreatment with the compound.

[3] = tested on: anaphylactic shock in guinea pigs sensitized to ovalbumin; test: Anaphylaxis in guinea pigs: protection against death (survival) after ovalbumin challenge; type: in vivo, guinea pig; details: Table I-b; estimated ED50, oral, protection against death after i.v. 0.6 mg ovalbumin
Experimental: The anti-anaphylactic and antihistaminic effects of the subject compounds (I) and salts thereof are studied "in vivo" in guinea pigs.
Guinea pigs, weighing between 400 and 500 g, are sensitized to ovalbumin by subplantar (s.p.) injection of 0.05 ml of antiserum in the left hind paw. The animals are then starved and orally treated, 24 hours after the sensitization, with saline (=control animals) or a particular dose of the compound under investigation.
The histamine injection (at a dose of 50 μg) was given s.p. in the right hind paw 2 hours after the oral pretreatment with the compound. The diameters of both hind paws are first measured before the histamine injection is given and again 10 minutes thereafter. The animals are challenged intravenously with 0.6 mg of ovalbumin 30 minutes after the histamine injection. All control animals develop tyical primary anaphylactic shock symptoms (coughing, difficult breathing, convulsions) and 85% of these control animals die within 15 minutes after the ovalbumin injection. Protection against death is used as the criterion for possible drug effects and the estimated ED50 -value, i.e. the oral dose whereby the protection is observed in 50% of the guinea pigs, is listed in the tables below.

1-[3-{4-[(3-chlorophenyl)phenylmethyl]-1-piperazinyl}propyl]-1H-benzimidazole trihydrochloride.hydrate.hemi-2-propanolate [I-b: M=H, R1=H, (CH2)4, R6=3-Cl, R7=H]
Histamine in "vitro" (ileum) effective conc. [1]: 0.01 mg/L
Anaphylaxis in guinea pigs oral effective dose in mg/kg: Histamine oedema [2]: 1.25 mg/kg
Anaphylaxis in guinea pigs oral effective dose in mg/kg: Survival [3]: 1.25 mg/kg
